The results in this text go back to US9212138B2, “Use of derivatives of indoles for the treatment of cancer” (CENTRE NATIONAL DE LA RECHERCHE SCIENTIFIQUE, priority 2009, dated 2015).

Molecules are shown by their SMILES. pIC50: −log10 of the molar value.

For the first assay, the target named is T1, MKLP-2 (RabK6) (Homo sapiens, UniProt O95235, S2A).
T1 construct: Expression clones for MKLP-21-519 (coding for residues 1 to 519) were obtained as follows; His-tag; made in house; host or cells: E. coli BL21(DE3)
T1 sequence (O95235 1-519 S2A limits assumed): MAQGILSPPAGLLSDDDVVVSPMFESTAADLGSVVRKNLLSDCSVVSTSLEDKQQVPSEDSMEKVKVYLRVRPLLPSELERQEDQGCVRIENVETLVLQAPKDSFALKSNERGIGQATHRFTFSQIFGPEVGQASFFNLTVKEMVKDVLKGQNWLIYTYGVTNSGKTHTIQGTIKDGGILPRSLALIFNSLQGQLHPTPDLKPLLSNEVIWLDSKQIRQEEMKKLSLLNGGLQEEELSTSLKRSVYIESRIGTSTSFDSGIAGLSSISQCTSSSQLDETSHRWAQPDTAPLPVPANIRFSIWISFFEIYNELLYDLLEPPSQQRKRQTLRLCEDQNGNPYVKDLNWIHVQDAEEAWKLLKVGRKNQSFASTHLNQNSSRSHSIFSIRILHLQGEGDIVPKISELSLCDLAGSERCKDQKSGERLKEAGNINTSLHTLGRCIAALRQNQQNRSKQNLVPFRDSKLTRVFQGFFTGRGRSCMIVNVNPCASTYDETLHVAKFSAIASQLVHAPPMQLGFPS
The assay can be described thus: biochemical.
Settings: not given
On the procedure: All experiments were performed at room temperature using a 96-well Sunrise photometer (Tecan, Maennedorf, Switzerland) at a final volume of 100 μl per well.
Steady-state ATPase rates were measured using the pyruvate kinase/lactate dehydrogenase-linked assay in buffer A25A (25 mM potassium ACES, pH 6.9, 2 mM MgAc2, 2 mM Na-EGTA, 0.1 mM Na-EDTA, 1 mM β-mercaptoethanol) supplemented with 1 mM MgATP; 2 mM PEP; 0.25 mM NADH; 3-10 μg/ml pyruvate kinase; 3 μg/ml lactate dehydrogenase and 8 μM taxol.
The data were analyzed using Kaleidagraph 3.0 (Synergy Software, Reading, Pa.) and Microsoft Excel to obtain the kinetic variables.
When necessary, the inhibitor concentrations were adapted depending on the initial IC50 value. Experiments were performed in triplicate and averaged data points are shown with error bars±SD.
As to `COc1ccc2[nH]cc(/C(C#N)=C/c3ccc(Cl)nc3)c2c1` [Example 49, (Z)-3-(6-chloropyridin-3-yl)-2-(5-methoxy-1H-indol-3-yl)-acrylonitrile], the pIC50 is 5.00 to 5.30.

As to `COc1ccc2[nH]cc(/C(C#N)=C/c3ccc(OC)nc3)c2c1` [Example 52, (Z)-3-(6-methoxy-pyridin-3-yl)-2-(5-methoxy-1H-indol-3-yl)-acrylonitrile], the pIC50 was 4.70 to 5.00.

Regarding `CCCc1nc2c(ccc3[nH]cc(/C(C#N)=C/c4cccnc4)c32)o1` [Example 34, (Z)-2-(2-propyl-6H-oxazolo[4,5-e]indol-8-yl)-3-(pyridin-3-yl)acrylonitrile], the pIC50 was < 4.30.

Turning to `N#C/C(=C\c1cccc(C#N)c1)c1c[nH]c2ccc(O)cc12` [Example 55, (Z)-3-[2-cyano-2-(5-hydroxy-1H-indol-3-yl)-vinyl]-benzonitrile], the negative logarithm of the IC50 (pIC50) was > 5.30.

Turning to `N#C/C(=C\c1cccnc1)c1c[nH]c2ccc(O)cc12` [Example 29, (Z)-2-(5-hydroxy-1H-indol-3-yl)-3-pyridin-3-yl-acrylonitrile], the negative logarithm of the IC50 (pIC50) is > 5.30.

On to `COc1ccc2[nH]cc(/C(C#N)=C/c3cccc([N+](=O)[O-])c3)c2c1` [Example 43, (Z)-2-(5-methoxy-1H-indol-3-yl)-3-(3-nitro-phenyl)-acrylonitrile], for which the pIC50 is < 4.30.

For `COc1ccc2[nH]cc(C(C)=Cc3cccnc3)c2c1` (racemic) [Example 59, 5-methoxy-3-(1-(pyridin-3-yl)prop-1-en-2-yl)-1H-indole], the pIC50 was > 5.30.

In the case of `N#C/C(=C\c1cccnc1)c1c[nH]c2ccc(-c3ccc(F)cc3)cc12` [Example 39, (Z)-2-(5-(4-fluorophenyl)-1H-indol-3-yl)-3-(pyridin-3-yl)-acrylonitrile], the pIC50 was 4.70 to 5.00.

As for `NC(=O)/C(=C\c1cccnc1)c1c[nH]c2ccccc12` [Example 56, (Z)-2-(1H-indol-3-yl)-3-pyridin-3-yl-acrylamide], the negative logarithm of the IC50 (pIC50) was < 4.30.

Turning to `COc1cccc2[nH]cc(/C(C#N)=C/c3cccnc3)c12` [Example 27, (Z)-2-(4-methoxy-1H-indol-3-yl)-3-pyridin-3-yl-acrylonitrile], the negative logarithm of the IC50 (pIC50) is 4.70 to 5.00.

As for `COc1ccc2[nH]cc(/C(C#N)=C/c3cccnc3F)c2c1` [Example 48, (Z)-3-(2-fluoropyridin-3-yl)-2-(5-methoxy-1H-indol-3-yl)-acrylonitrile], the negative-log IC50 (pIC50) was > 5.30.

In the case of `COc1ccc2[nH]cc(/C(C#N)=C/c3cccc(N)c3)c2c1` [Example 45, (Z)-3-(3-amino-phenyl)-2-(5-methoxy-1H-indol-3-yl)-acrylonitrile], the pIC50 is < 4.30.

In the case of `COC(=O)Nc1ccc2[nH]cc(/C(C#N)=C/c3cccnc3)c2c1` [Example 41, (Z)-methyl 3-(1-cyano-2-(pyridin-3-yl)vinyl)-1H-indol-5-ylcarbamate], the pIC50 is > 5.30.

Consider `COc1ccc2[nH]cc(/C(C#N)=C/c3cnn(C)c3)c2c1` [Example 51], for which the pIC50 was < 4.30.

For the molecule `COc1ccc2[nH]cc(/C(C#N)=C/c3cnccc3Cl)c2c1` [Example 47, (Z)-3-(4-chloro-pyridin-3-yl)-2-(5-methoxy-1H-indol-3-yl)-acrylonitrile], the negative-log IC50 (pIC50) was 5.00 to 5.30.

`COc1cc(-c2ccc3[nH]cc(/C(C#N)=C/c4cccnc4)c3c2)cc(OC)c1OC` [Example 38, (Z)-3-(pyridin-3-yl)-2-(5-(3,4,5-trimethoxyphenyl)-1H-indol-3-yl)-acrylonitrile]: the negative logarithm of the IC50 (pIC50) was 5.00 to 5.30.

On to `COc1ccc2[nH]cc(/C(C#N)=C/c3cccc(C(N)=O)c3)c2c1` [Example 32, (Z)-3-[2-cyano-2-(5-methoxy-1H-indol-3-yl)-vinyl]-benzamide], for which the pIC50 was 4.70 to 5.00.

On to `COc1ccc2[nH]cc(/C(C#N)=C/c3ccc(C#N)nc3)c2c1` [Example 54, (Z)-5-[2-cyano-2-(5-methoxy-1H-indol-3-yl)-vinyl]-picolinonitrile], for which the pIC50 was 5.00 to 5.30.

Regarding `COc1cncc(/C=C(\C#N)c2c[nH]c3ccc(OC)cc23)c1` [Example 46, (Z)-2-(5-methoxy-1H-indol-3-yl)-3-(5-methoxy-pyridin-3-yl)-acrylonitrile], the pIC50 was 4.70 to 5.00.

In the case of `COc1ccc2[nH]cc(/C(C#N)=C/c3cnccc3C)c2c1` [Example 31, (Z)-2-(5-methoxy-1H-indol-3-yl)-3-(4-methyl-pyridin-3-yl)-acrylonitrile], the negative logarithm of the IC50 (pIC50) was > 5.30.

On to `N#C/C(=C\c1cccc([N+](=O)[O-])c1)c1c[nH]c2ccccc12` [Example 42, (Z)-2-(1H-indol-3-yl)-3-(3-nitro-phenyl)-acrylonitrile], for which the pIC50 was < 4.30.

As for `COc1ccc2[nH]cc(/C(C#N)=C/c3ccc[n+](C)c3)c2c1` [Example 33, (Z)-3-[2-cyano-2-(5-methoxy-1H-indol-3-yl)-vinyl]-1-methylpyridinium iodide], the negative-log IC50 (pIC50) was 4.70 to 5.00.

`COc1ccc2[nH]cc(/C(C#N)=C/c3ccsc3)c2c1` [Example 50, (Z)-2-(5-methoxy-1H-indol-3-yl)-3-thiophen-3-yl-acrylonitrile]: the pIC50 was < 4.30.

Consider `N#C/C(=C\c1cccnc1)c1c[nH]c2ccc(F)cc12` [Example 25, (Z)-2-(5-fluoro-1H-indol-3-yl)-3-pyridin-3-yl-acrylonitrile], for which the negative-log IC50 (pIC50) was > 5.30.

In the case of `N#C/C(=N\c1cccnc1)c1c[nH]c2ccccc12` [Example 61, (Z)-(1H-indol-3-yl)-(pyridin-3-ylimino)-acetonitrile], the pIC50 is > 5.30.

Regarding `COc1ccc2[nH]cc(/C(C#N)=C(\C)c3cccnc3)c2c1` [Example 60, (Z)-2-(5-methoxy-1H-indol-3-yl)-3-(pyridin-3-yl)-but-2-enenitrile], the pIC50 was > 5.30.

Staying with this assay, now noted: basal ATPase activity, absence of MTs; read-out: RabK6 basal IC50 X.
In the case of `COc1ccc2[nH]cc(/C(C#N)=C/c3cc(OC)c(O)c(OC)c3)c2c1` [Example 7, (Z)-3-(4-hydroxy-3,5-dimethoxy-phenyl)-2-(5-methoxy-1H-indol-3-yl)-acrylonitrile], the pIC50 was 4.30 to 4.70.

Take `COc1ccc2[nH]cc(/C(C#N)=C/c3cccnc3)c2c1` [Example 4, (Z)-2-(5-methoxy-1H-indol-3-yl)-3-pyridin-3-yl-acrylonitrile]: the pIC50 is > 5.30.

With `N#C/C(=C\c1cccnc1)c1c[nH]c2ccc(Cl)cc12` [Example 24, (Z)-2-(5-chloro-1H-indol-3-yl)-3-pyridin-3-yl-acrylonitrile], the negative logarithm of the IC50 (pIC50) is > 5.30.

With `CC(=O)Oc1ccc2[nH]cc(/C(C#N)=C/c3cccnc3)c2c1` [Example 20, 3-(1-cyano-2-(pyridin-3-yl)vinyl)-1H-indol-5-yl-acetate], the negative-log IC50 (pIC50) is > 5.30.

With `COc1ccc2[nH]cc(/C(C#N)=C/c3cncnc3)c2c1` [Example 16, (Z)-2-(5-methoxy-1H-indol-3-yl)-3-pyrimidin-5-yl-acrylonitrile], the negative logarithm of the IC50 (pIC50) was 5.00 to 5.30.

Take `COCC(=O)Oc1ccc2[nH]cc(/C(C#N)=C/c3cccnc3)c2c1` [Example 21, 3-(1-cyano-2-(pyridin-3-yl)vinyl)-1H-indol-5-yl-methoxyacetate]: the pIC50 is 5.00 to 5.30.

`CCOc1ccc2[nH]cc(/C(C#N)=C/c3cccnc3)c2c1` [Example 22, (Z)-2-(5-ethoxy-1H-indol-3-yl)-3-pyridin-3-yl-acrylonitrile]: the pIC50 was > 5.30.

Turning to `N#C/C(=C\c1ccccc1)c1c[nH]c2ccccc12` [Example 9, (Z)-2-(1H-indol-3-yl)-3-phenyl-acrylonitrile], the pIC50 is 4.30 to 4.70.

For `N#C/C(=C\c1ccc2c(c1)OCO2)c1c[nH]c2ccccc12` [Example 11, (Z)-3-benzo[1,3]dioxol-5-yl-2-(1H-indol-3-yl)-acrylonitrile], the negative logarithm of the IC50 (pIC50) was 4.70 to 5.00.

For `N#C/C(=C\c1cncnc1)c1c[nH]c2ccccc12` [Example 15, (Z)-2-(1H-indol-3-yl)-3-pyrimidin-5-yl-acrylonitrile], the pIC50 was 4.70 to 5.00.

`N#C/C(=C\c1cccnc1)c1c[nH]c2ccc(OCc3ccccc3)cc12` [Example 5, (Z)-2-(5-benzyloxy-1H-indol-3-yl)-3-pyridin-3-yl-acrylonitrile]: the pIC50 was < 4.30.

For `COc1ccc2[nH]cc(/C(C#N)=C/c3ccccn3)c2c1` [Example 6, (Z)-2-(5-methoxy-1H-indol-3-yl)-3-pyridin-2-yl-acrylonitrile], the pIC50 is 4.70 to 5.00.

On to `N#C/C(=C\c1ccccn1)c1c[nH]c2ccccc12` [Example 3, (Z)-2-(1H-indol-3-yl)-3-pyridin-2-yl-acrylonitrile], for which the pIC50 was < 4.30.

With `COc1ccc2[nH]cc(C(C#N)Cc3cccnc3)c2c1` (centres unmarked) [Example 18, 2-(5-methoxy-1H-indol-3-yl)-3-pyridin-3-yl-propionitrile], the negative-log IC50 (pIC50) was 4.30 to 4.70.

As to `COc1cc(/C=C(\C#N)c2c[nH]c3ccc(OC)cc23)cc(OC)c1` [Example 14, (Z)-3-(3,5-dimethoxy-phenyl)-2-(5-methoxy-1H-indol-3-yl)-acrylonitrile], the pIC50 is 5.00 to 5.30.

By pIC50 is commonly meant the negative decadic logarithm of the IC50, by convention in mol/L.
